Assay [1] has as its target T1, TYK2 (Homo sapiens, UniProt P29597). The assay is described as follows: HEK-Blue IFNα/β reporter assay (SEAP) for TYK2 pseudokinase inhibition. It is filed as cell-based. To be noted: HEK-Blue IFNα/β cells, 1 ng/mL human recombinant IFNα. The method in brief:
(§1)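 HEK-Blue cells carrying cytokine receptor and STAT3 or STAT1 SEAP reporter, pretreated 60 min with compound, then stimulated with 10 ng/mL IL-23 (22–24 h) or 1 ng/mL IFNα (16–18 h). SEAP read with QUANTI-Blue; IC50 by non-linear regression versus no-inhibitor and unstimulated controls.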
A general note: A reporter such as luciferase makes a cellular process visible.

The target of assay [2] is T1, TYK2. Briefly: HEK-Blue IL-23 reporter assay (SEAP) for TYK2 pseudokinase inhibition. To be noted: HEK-Blue IL-23 cells, 10 ng/mL human recombinant IL-23, SEAP reporter; read-out: IL23 IC50. It is filed as cell-based. Also noted: HEK-Blue™ IL-23 and IFNα/β cells with a stably-integrated cytokine receptor and STAT3 or STAT1; host or cells: HEK-Blue IL-23 / HEK-Blue IFNα/β cells (HEK293 background). In outline:
as §1

Molecules are shown by their SMILES.

T1 sequence (P29597 whole entry): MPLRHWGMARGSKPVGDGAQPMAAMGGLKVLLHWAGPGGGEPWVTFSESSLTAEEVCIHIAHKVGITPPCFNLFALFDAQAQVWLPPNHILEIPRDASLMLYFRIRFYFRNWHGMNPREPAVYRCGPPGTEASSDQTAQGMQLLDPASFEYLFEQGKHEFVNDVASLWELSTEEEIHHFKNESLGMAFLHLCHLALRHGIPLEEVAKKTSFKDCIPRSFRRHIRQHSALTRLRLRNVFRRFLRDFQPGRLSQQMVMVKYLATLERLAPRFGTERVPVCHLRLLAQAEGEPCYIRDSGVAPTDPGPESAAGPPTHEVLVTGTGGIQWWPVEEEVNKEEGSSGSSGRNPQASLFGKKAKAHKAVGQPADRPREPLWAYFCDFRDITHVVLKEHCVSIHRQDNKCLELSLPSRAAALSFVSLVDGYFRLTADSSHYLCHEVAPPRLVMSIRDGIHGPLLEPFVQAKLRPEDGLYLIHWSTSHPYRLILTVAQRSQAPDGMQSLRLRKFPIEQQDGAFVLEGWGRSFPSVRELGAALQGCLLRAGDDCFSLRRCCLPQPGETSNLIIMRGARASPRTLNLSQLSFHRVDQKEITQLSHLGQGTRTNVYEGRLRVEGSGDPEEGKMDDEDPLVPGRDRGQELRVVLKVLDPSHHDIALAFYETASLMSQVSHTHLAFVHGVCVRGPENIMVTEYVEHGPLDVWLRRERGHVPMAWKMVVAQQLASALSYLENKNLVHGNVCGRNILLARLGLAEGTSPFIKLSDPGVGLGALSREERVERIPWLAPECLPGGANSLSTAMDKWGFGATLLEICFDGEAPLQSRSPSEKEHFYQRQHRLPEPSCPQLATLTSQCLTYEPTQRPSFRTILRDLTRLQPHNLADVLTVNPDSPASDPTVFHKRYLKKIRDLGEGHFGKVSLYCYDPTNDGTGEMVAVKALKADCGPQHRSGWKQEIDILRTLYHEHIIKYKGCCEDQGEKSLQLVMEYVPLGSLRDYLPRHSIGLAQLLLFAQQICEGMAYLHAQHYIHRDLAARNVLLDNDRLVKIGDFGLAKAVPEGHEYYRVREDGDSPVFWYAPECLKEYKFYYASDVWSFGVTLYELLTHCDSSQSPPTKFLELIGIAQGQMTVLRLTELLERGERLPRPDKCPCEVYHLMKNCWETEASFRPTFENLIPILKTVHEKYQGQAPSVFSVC

For the compound `COc1c(F)cccc1-n1[nH]c(=O)c2cnc(Nc3ccc(F)cn3)cc21` [Compound I-100, 1-(3-fluoro-2-methoxyphenyl)-6-((5-fluoropyridin-2-yl)amino)-1,2-dihydro-3H-pyrazolo[4,3-c]pyridin-3-one], the IC50 at TYK2 [1] and at TYK2 [2] was over 90 µM throughout.

As for `COc1c(Cl)cccc1-n1[nH]c(=O)c2cnc(Nc3cc(C)nc(C)n3)cc21` [Compound I-101, 1-(3-chloro-2-methoxyphenyl)-6-((2,6-dimethylpyrimidin-4-yl)amino)-1,2-dihydro-3H-pyrazolo[4,3-c]pyridin-3-one], the IC50 at TYK2 [1] and on TYK2 [2] was over 90 µM throughout.

Turning to `COc1c(Cl)cccc1-n1[nH]c(=O)c2cnc(Nc3ccc(F)cn3)cc21` [Compound I-102, 1-(3-chloro-2-methoxyphenyl)-6-((5-fluoropyridin-2-yl)amino)-1,2-dihydro-3H-pyrazolo[4,3-c]pyridin-3-one], the IC50 (as a rule, the concentration that inhibits the measured activity by half) was over 90 µM on TYK2 [1] and 10 to 30 µM on TYK2 [2].

As to `COc1c(-n2[nH]c(=O)c3cnc(Nc4cc(C)nc(C)n4)cc32)cccc1C(F)(F)F` [Compound I-103, 6-((2,6-dimethylpyrimidin-4-yl)amino)-1-(2-methoxy-3-(trifluoromethyl)phenyl)-1,2-dihydro-3H-pyrazolo[4,3-c]pyridin-3-one], the IC50 at TYK2 [1] and at TYK2 [2] was over 90 µM each time.

In the case of `COc1c(-n2[nH]c(=O)c3cnc(Nc4ccc(F)cn4)cc32)cccc1C(F)(F)F` [Compound I-104, 6-((5-fluoropyridin-2-yl)amino)-1-(2-methoxy-3-(trifluoromethyl)phenyl)-1,2-dihydro-3H-pyrazolo[4,3-c]pyridin-3-one], the 50% inhibitory concentration (IC50) at TYK2 [1] and on TYK2 [2] was over 90 µM throughout.

For `Cc1cc(Nc2cc3c(cn2)c(=O)[nH]n3-c2ccccc2C)nc(C)n1` [Compound I-105, 6-((2,6-dimethylpyrimidin-4-yl)amino)-1-(o-tolyl)-1,2-dihydro-3H-pyrazolo[4,3-c]pyridin-3-one], the IC50 on TYK2 [1] and on TYK2 [2] was under 10 µM throughout.

As for `Cc1ccccc1-n1[nH]c(=O)c2cnc(Nc3ccc(F)cn3)cc21` [Compound I-106, 6-((5-fluoropyridin-2-yl)amino)-1-(0-tolyl)-1,2-dihydro-3H-pyrazolo[4,3-c]pyridin-3-one], the IC50 is 30 to 90 µM at TYK2 [1] and under 10 µM on TYK2 [2].

As to `Cc1ccccc1-n1[nH]c(=O)c2cnc(NC(=O)C3CC3)cc21` [Compound I-107, N-(3-oxo-1-(o-tolyl)-2,3-dihydro-1H-pyrazolo[4,3-c]pyridin-6-yl)cyclopropanecarboxamide], the IC50 at TYK2 [1] and at TYK2 [2] was under 10 µM in each case.

Consider `CCc1ccccc1-n1[nH]c(=O)c2cnc(Nc3cc(C)nc(C)n3)cc21` [Compound I-108, 6-((2,6-dimethylpyrimidin-4-yl)amino)-1-(2-ethylphenyl)-1,2-dihydro-3H-pyrazolo[4,3-c]pyridin-3-one], for which the IC50 at TYK2 [1] is 10 to 30 µM; at TYK2 [2], under 10 µM.

For `CCc1ccccc1-n1[nH]c(=O)c2cnc(Nc3ccc(F)cn3)cc21` [Compound I-109, 1-(2-ethylphenyl)-6-((5-fluoropyridin-2-yl)amino)-1,2-dihydro-3H-pyrazolo[4,3-c]pyridin-3-one], the IC50 on TYK2 [1] and on TYK2 [2] was over 90 µM in each case.

Take `CCc1ccccc1-n1[nH]c(=O)c2cnc(NC(=O)C3CC3)cc21` [Compound I-110, N-(1-(2-ethylphenyl)-3-oxo-2,3-dihydro-1H-pyrazolo[4,3-c]pyridin-6-yl)cyclopropanecarboxamide]: the IC50 on TYK2 [1] and at TYK2 [2] was over 90 µM each time.

For `Cc1cc(Nc2cc3c(cn2)c(=O)[nH]n3-c2ccccc2F)nc(C)n1` [Compound I-111, 6-((2,6-dimethylpyrimidin-4-yl)amino)-1-(2-fluorophenyl)-1,2-dihydro-3H-pyrazolo[4,3-c]pyridin-3-one], the IC50 on TYK2 [1] and on TYK2 [2] was under 10 µM throughout.

Take `O=c1[nH]n(-c2ccccc2F)c2cc(Nc3ccc(F)cn3)ncc12` [Compound I-112, 1-(2-fluorophenyl)-6-((5-fluoropyridin-2-yl)amino)-1,2-dihydro-3H-pyrazolo[4,3-c]pyridin-3-one]: the IC50 at TYK2 [1] and on TYK2 [2] was under 10 µM in each case.

Consider `Cc1cc(Nc2cc3c(cn2)c(=O)[nH]n3-c2cccc(F)c2F)nc(C)n1` [Compound I-113, 1-(2,3-difluorophenyl)-6-((2,6-dimethylpyrimidin-4-yl)amino)-1,2-dihydro-3H-pyrazolo[4,3-c]pyridin-3-one], for which the IC50 on TYK2 [1] and on TYK2 [2] was under 10 µM throughout.

`Cc1cc(Nc2cc3c(cn2)c(=O)[nH]n3C2CCCC2)nc(C)n1` [Compound I-114, 1-cyclopentyl-6-((2,6-dimethylpyrimidin-4-yl)amino)-1,2-dihydro-3H-pyrazolo[4,3-c]pyridin-3-one]: the IC50 on TYK2 [1] and on TYK2 [2] was under 10 µM throughout.

On to `O=c1[nH]n(C2CCCC2)c2cc(Nc3ccc(F)cn3)ncc12` [Compound I-115, 1-cyclopentyl-6-((5-fluoropyridin-2-yl)amino)-1,2-dihydro-3H-pyrazolo[4,3-c]pyridin-3-one], for which the IC50 on TYK2 [1] and at TYK2 [2] was under 10 µM each time.

As to `COc1cccc(-n2[nH]c(=O)c3c(N)nc(Nc4cc(C)nc(C)n4)cc32)c1` [Compound I-116, 4-amino-6-((2,6-dimethylpyrimidin-4-yl)amino)-1-(3-methoxyphenyl)-1,2-dihydro-3H-pyrazolo[4,3-c]pyridin-3-one], the IC50 is 30 to 90 µM on TYK2 [1] and under 10 µM at TYK2 [2].

Turning to `Cc1cc(Nc2cc3c(cn2)c(=O)[nH]n3-c2cccc(CO)c2)nc(C)n1` [Compound I-117, 6-((2,6-dimethylpyrimidin-4-yl)amino)-1-(3-(hydroxymethyl)phenyl)-1,2-dihydro-3H-pyrazolo[4,3-c]pyridin-3-one], the results for the half-inhibitory concentration (IC50) at TYK2 [1] and on TYK2 [2] were 10 to 30 µM and under 10 µM, respectively.

Take `Cc1cc(Nc2cc3c(cn2)c(=O)[nH]n3-c2cccc(C(=O)NCc3ccccn3)c2)nc(C)n1` [Compound I-118, 3-(6-((2,6-dimethylpyrimidin-4-yl)amino)-3-oxo-2,3-dihydro-1H-pyrazolo[4,3-c]pyridin-1-yl)-N-(pyridin-2-ylmethyl)benzamide]: the IC50 is over 90 µM on TYK2 [1] and under 10 µM at TYK2 [2].

For `Cc1cc(Nc2cc3c(cn2)c(=O)[nH]n3-c2ccc3cn(C)nc3c2)nc(C)n1` [Compound I-121, 6-((2,6-dimethylpyrimidin-4-yl)amino)-1-(2-methyl-2H-indazol-6-yl)-1,2-dihydro-3H-pyrazolo[4,3-c]pyridin-3-one], the half-inhibitory concentration (IC50) at TYK2 [1] and at TYK2 [2] was under 10 µM each time.

`Cn1cc2ccc(-n3[nH]c(=O)c4cnc(Nc5ccc(F)cn5)cc43)cc2n1` [Compound I-122, 6-((5-fluoropyridin-2-yl)amino)-1-(2-methyl-2H-indazol-6-yl)-1,2-dihydro-3H-pyrazolo[4,3-c]pyridin-3-one]: the IC50 on TYK2 [1] and on TYK2 [2] was under 10 µM each time.

As to `CNC(=O)Nc1cc2c(cn1)c(=O)[nH]n2-c1ccccc1` [Compound I-125, 1-methyl-3-(3-oxo-1-phenyl-2,3-dihydro-1H-pyrazolo[4,3-c]pyridin-6-yl)urea], the figures for the IC50 on TYK2 [1] and on TYK2 [2] were 30 to 90 µM and under 10 µM, respectively.

For `COC(=O)Nc1cc2c(cn1)c(=O)[nH]n2-c1ccccc1` [Compound I-126, methyl (3-oxo-1-phenyl-2,3-dihydro-1H-pyrazolo[4,3-c]pyridin-6-yl)carbamate], the IC50 was over 90 µM at TYK2 [1] and under 10 µM at TYK2 [2].

The values are drawn from patent US12668594B2, “TYK2 inhibitors and uses thereof” (Sudo Biosciences Limited, priority 2020, dated 2026).
